Experiment [1] has as its target T1, Genome polyprotein (dengue virus type 2, UniProt P29990). The experiment is classed as functional, Thailand/16681/1984.
Experiment [2] deals with T1, Genome polyprotein. The experiment is classed as functional, Thailand/16681/1984. This is another data set of the same source.

“And” between values parts separate entries of the source, which are not always exact repeats. Equal values may be shown once. Bounds are passed on as bounds.

T1 sequence (P29990 1346-1475 limits assumed): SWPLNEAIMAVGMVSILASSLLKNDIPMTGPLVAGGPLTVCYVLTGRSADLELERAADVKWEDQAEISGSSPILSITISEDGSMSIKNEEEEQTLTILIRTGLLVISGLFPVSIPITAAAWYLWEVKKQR
T1 sequence (P29990 1476-2093 limits assumed): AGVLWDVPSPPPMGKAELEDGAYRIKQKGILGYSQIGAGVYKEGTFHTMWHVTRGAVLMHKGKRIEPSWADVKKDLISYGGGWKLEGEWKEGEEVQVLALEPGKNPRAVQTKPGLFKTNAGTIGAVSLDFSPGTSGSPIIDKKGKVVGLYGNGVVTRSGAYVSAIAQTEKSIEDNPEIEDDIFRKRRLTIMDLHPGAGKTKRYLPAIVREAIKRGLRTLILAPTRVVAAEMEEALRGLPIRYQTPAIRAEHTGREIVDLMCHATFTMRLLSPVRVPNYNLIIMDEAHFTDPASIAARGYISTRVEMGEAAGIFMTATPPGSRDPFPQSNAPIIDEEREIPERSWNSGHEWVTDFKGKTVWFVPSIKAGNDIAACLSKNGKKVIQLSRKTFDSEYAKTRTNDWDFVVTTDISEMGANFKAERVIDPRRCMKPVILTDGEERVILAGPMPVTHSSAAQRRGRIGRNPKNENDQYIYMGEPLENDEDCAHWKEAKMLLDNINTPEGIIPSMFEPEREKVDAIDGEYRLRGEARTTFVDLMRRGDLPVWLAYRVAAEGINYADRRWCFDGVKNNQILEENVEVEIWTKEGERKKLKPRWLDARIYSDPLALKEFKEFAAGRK

Broadly, the IC50 is the concentration that inhibits the measured activity by half. The low end stands for greater potency, the high end for weaker potency. In the case of `C=CC[C@H](Nc1cncc(Cl)c1)c1cccc(-c2nn[nH]n2)c1`, the values for the IC50 on Genome polyprotein [1] and at Genome polyprotein [2] were above 100 µM and above 99.5 µM, respectively.
Turning to `C=CC[C@H](Nc1cccc(Cl)c1)c1cccc(-c2nn[nH]n2)c1`, the IC50 on Genome polyprotein [1] was 41.5 µM and 38.9 µM; against Genome polyprotein [2] it was above 99.5 µM.
With `O=C(Nc1cc(Cl)cc([C@H](Nc2cccc(-c3nn[nH]n3)c2)C(=O)N[C@H]2CCOC2)c1)OCc1ccccc1`, the values for the IC50 against Genome polyprotein [1] and against Genome polyprotein [2] were 22.9 µM and 40.3 µM, respectively.
As to `CCCn1cc(-c2cc(Cl)cc(NC(=O)OCc3ccccc3)c2)c(C(=O)O)n1`, the results for the IC50 on Genome polyprotein [1] and at Genome polyprotein [2] were above 100 µM and above 99.5 µM, respectively.
For the compound `O=C(O)CCCn1cnc(-c2cc(Cl)cc(NC(=O)OCc3ccccc3)c2)n1`, the IC50 was above 100 µM against Genome polyprotein [1] and above 99.5 µM at Genome polyprotein [2].
As for `N#C[C@H](Nc1cncc(-c2nn[nH]n2)c1)c1cc(Cl)cc(NC(=O)OCc2ccccc2)c1`, the IC50 against Genome polyprotein [1] was 11 µM and 10.8 µM; against Genome polyprotein [2], 18.7 µM.
`N#C[C@H](c1cc(Cl)cc(C2CC2)c1)N1c2cnccc2C[C@H]1C(=O)O`: the IC50 was above 100 µM against Genome polyprotein [1] and above 99.5 µM on Genome polyprotein [2].
On the same counts, the results for `NCc1cc(CCc2cc(Cl)cc(NC(=O)OCc3ccccc3)c2)cc(C(=O)O)c1` are above 100 µM and above 99.5 µM.
`N#C[C@H](Nc1cccc(-c2nn[nH]n2)c1)c1cc(Cl)cc2[nH]ncc12`: the IC50 against Genome polyprotein [1] is 88.3 µM; against Genome polyprotein [2], above 99.5 µM.
With `Clc1cc([C@@H]2C[C@H]2c2cccc(-c3nn[nH]n3)c2)c2cn[nH]c2c1`, the IC50 against Genome polyprotein [1] is 20.4 µM and 23.8 µM; at Genome polyprotein [2] it was 66.2 µM.
Take `O=C(Nc1cc(Cl)cc([C@H]2[C@H](CO)[C@@H]2c2cccc(-c3nn[nH]n3)c2)c1)OCc1ccccc1`: the IC50 was 11.3 µM and 13.5 µM at Genome polyprotein [1]; 25.2 µM against Genome polyprotein [2].
On to `N#C[C@H](Nc1ccc2c(c1)CNC2)c1cc(Cl)cc2[nH]ncc12`, for which the IC50 against Genome polyprotein [1] is above 100 µM; on Genome polyprotein [2] it was above 99.5 µM.
On the same counts, the results for `NCc1cc(Cl)cc(-c2ccc3[nH]c(C(=O)O)cc3c2)c1` are above 100 µM and above 99.5 µM.
Take `O=C(Nc1cc(Cl)cc([C@H](Nc2cccc(-c3nn[nH]n3)c2)C(=O)NC[C@H]2CCCO2)c1)OCc1ccccc1`: the IC50 against Genome polyprotein [1] was determined as 17.6 µM; on Genome polyprotein [2] it was 33.7 µM.
The corresponding values for `O=C(Nc1cc(Cl)cc([C@H]2C[C@@H]2c2cccc(-c3nnn[nH]3)c2)c1)OCc1ccccc1` are 19.1 µM and 16.2 µM.
On the same counts, the results for `N#C[C@H](Nc1ccc(CCC(=O)O)cn1)c1cc(Cl)cc(C2CC2)c1` are above 100 µM and above 99.5 µM.
The corresponding values for `N#C[C@H](Nc1cccn(CC(=O)O)c1=O)c1cc(Cl)cc(C2CC2)c1` are above 100 µM and above 99.5 µM.
Regarding `CNc1ncc(C(F)(F)F)cc1-c1ccc2[nH]c(C(=O)O)cc2c1`, the IC50 was above 100 µM at Genome polyprotein [1] and above 99.5 µM on Genome polyprotein [2].
The corresponding values for `O=C(Nc1cc(Cl)cc(C(=O)N2CCC(C(=O)O)CC2)c1)OCc1ccccc1` are above 100 µM and above 99.5 µM.
Regarding `O=C(Nc1cc(Cl)cc([C@H](Nc2cccc(-c3nn[nH]n3)c2)C(=O)NC2CCOCC2)c1)OCc1ccccc1`, the IC50 against Genome polyprotein [1] is 13.2 µM and 19.9 µM; at Genome polyprotein [2], 40.6 µM.
For `O=C(Nc1cc(Cl)cc(-c2ccc3[nH]nc(C(=O)O)c3c2)c1)OCc1ccccc1`, the IC50 on Genome polyprotein [1] was 6.27 µM and 5 µM; against Genome polyprotein [2] it was 9.15 µM.
For the compound `O=C(O)c1cccc(CCc2cc(Cl)cc3[nH]ncc23)c1`, the IC50 is above 100 µM at Genome polyprotein [1] and above 99.5 µM at Genome polyprotein [2].
Consider `O=C(Nc1cc(Cl)cc(CNc2cccc(-c3nn[nH]n3)c2)c1)OCc1ccccc1`, for which the 50% inhibitory concentration (IC50) was 8.36 µM and 5.15 µM against Genome polyprotein [1]; 11.6 µM at Genome polyprotein [2].
As to `OCC#C[C@H](Nc1ccc(-c2nnn[nH]2)cc1)c1cc(Cl)cc(C2CC2)c1`, the figures for the IC50 at Genome polyprotein [1] and against Genome polyprotein [2] were 40.8 µM and above 99.5 µM, respectively.
Consider `O=C(Nc1cc(Cl)cc(-c2ccc3cc(C(=O)O)[nH]c3c2)c1)OCc1ccccc1`, for which the IC50 against Genome polyprotein [1] is 7.4 µM and 4.18 µM; on Genome polyprotein [2], 7.42 µM.
As for `O=C(Nc1cc(Cl)cc(-c2cn(C3CCCC3)nc2C(=O)O)c1)OCc1ccccc1`, the IC50 is 42.7 µM and 31.7 µM against Genome polyprotein [1]; 34.3 µM against Genome polyprotein [2].
With `NCc1cc(NC(=O)c2cc(Cl)cc(NC(=O)OCc3ccccc3)c2)cc([C@@H]2C[C@H]2C(=O)O)c1`, the IC50 on Genome polyprotein [1] is above 100 µM; at Genome polyprotein [2] it was above 99.5 µM.
The corresponding values for `NCc1ccc(C(=O)O)c(NC(=O)c2cc(Cl)cc(NC(=O)OCc3ccccc3)c2)c1` are above 100 µM and above 99.5 µM.
The corresponding values for `CC(C)CNC(=O)[C@H](Nc1cccc(-c2nnn[nH]2)c1)c1cc(Cl)cc(C2CC2)c1` are 47.3 µM and 74.4 µM.
On the same counts, the results for `CNC(=O)[C@H](Nc1cc(CN)cc(C(=O)O)c1)c1cc(Cl)cc(C2CC2)c1` are above 100 µM and above 99.5 µM.
As to `N#Cc1cc(CN)cc([C@H]2C[C@@H]2c2cc(Cl)cc(NC(=O)OCc3ccccc3)c2)c1`, the IC50 against Genome polyprotein [1] is above 100 µM; against Genome polyprotein [2] it was above 99.5 µM.
The corresponding values for `NCc1cc(CC(=O)O)cc(NC(=O)c2cc(Cl)cc(NC(=O)OCc3ccccc3)c2)c1` are above 100 µM and above 99.5 µM.
Turning to `O=C(Nc1cc(Cl)cc(C(=O)N2CCC[C@H]2C(=O)O)c1)OCc1ccccc1`, the IC50 was above 100 µM against Genome polyprotein [1] and above 99.5 µM against Genome polyprotein [2].
The corresponding values for `O=C(Nc1cc(Cl)cc(C(=O)NC2(c3nnn[nH]3)CC2)c1)OCc1ccccc1` are above 100 µM and above 99.5 µM.
The corresponding values for `C[C@@]1(c2cccc(CN)c2)C[C@H]1c1cc(Cl)cc(NC(=O)OCc2ccccc2)c1` are above 100 µM and 17.5 µM.
The corresponding values for `O=C(Nc1cc(Cl)cc([C@H]2Nc3ccc(-c4nn[nH]n4)cc3[C@H]3OCCC[C@@H]23)c1)OCc1ccccc1` are above 100 µM and above 99.5 µM.
As for `Cc1c(C(=O)Nc2cccc(-c3nnn[nH]3)c2)cnn1-c1ccc(Cl)cc1`, the results for the IC50 against Genome polyprotein [1] and on Genome polyprotein [2] were above 100 µM and above 99.5 µM, respectively.
In the case of `OCC#C[C@H](Nc1ccc2c(c1)CNC2)c1cc(Cl)cc2[nH]ncc12`, the IC50 on Genome polyprotein [1] was 92.7 µM and 63.7 µM; against Genome polyprotein [2], 25.1 µM.
Regarding `CNC(=O)[C@H](Nc1cc(Cl)cc(C2CC2)c1)c1ccc(-c2nn[nH]n2)cc1`, the IC50 was 99.6 µM and > 100 µM on Genome polyprotein [1]; above 99.5 µM against Genome polyprotein [2].
Consider `NCc1cccc([C@H](C#CCO)Nc2cc(Cl)cc(NC(=O)OCc3ccccc3)c2)c1`, for which the results for the IC50 against Genome polyprotein [1] and against Genome polyprotein [2] were above 100 µM and 64.9 µM, respectively.
On the same counts, the results for `O=C(Nc1cc(Cl)cc(-c2cnn3ccc(C(=O)O)cc23)c1)OCc1ccccc1` are above 100 µM and above 99.5 µM.
On to `Clc1cccc([C@H](C#Cc2ccccc2)Nc2cccc(-c3nn[nH]n3)c2)c1`, for which the IC50 against Genome polyprotein [1] was 6.31 µM and 4.12 µM; against Genome polyprotein [2] it was 7.71 µM.
With `CNC(=O)[C@H](Nc1cccc(C2(C(=O)O)CCC2)c1)c1cc(Cl)cc(C2CC2)c1`, the IC50 was above 100 µM at Genome polyprotein [1] and above 99.5 µM against Genome polyprotein [2].
On the same counts, the results for `CNC(=O)c1cc(CN)cc([C@@H]2C[C@H]2c2cc(Cl)cc(NC(=O)OCc3ccccc3)c2)c1` are above 100 µM and 29.6 µM.
On the same counts, the results for `COCCNC(=O)[C@H](Nc1cccc(-c2nn[nH]n2)c1)c1cc(Cl)cc(NC(=O)OCc2ccccc2)c1` are 28 µM and 59.8 µM.
Regarding `N#Cc1cc(Cl)cc(-c2ccc3[nH]c(C(=O)O)cc3c2)c1`, the IC50 at Genome polyprotein [1] is > 100 µM and 82.1 µM; against Genome polyprotein [2], above 99.5 µM.
Take `O=C(O)C[C@H]1CCCN1C(=O)c1cc(Cl)cc(NC(=O)OCc2ccccc2)c1`: the IC50 against Genome polyprotein [1] was above 100 µM; at Genome polyprotein [2], above 99.5 µM.
The corresponding values for `C[C@@]1(c2cc(Cl)cc(NC(=O)OCc3ccccc3)c2)C[C@H]1c1cccc(CN)c1` are above 100 µM and 88.1 µM.
For the compound `O=C(O)c1cc2cc(-c3cc(Cl)cc(C4CC4)c3)ccc2[nH]1`, the IC50 against Genome polyprotein [1] is 11.4 µM and 11 µM; against Genome polyprotein [2], 15.7 µM.
Take `CNC(=O)[C@H](Nc1cncc(C(=O)O)c1)c1cc(Cl)cc(C2CC2)c1`: the IC50 against Genome polyprotein [1] is above 100 µM; against Genome polyprotein [2] it was above 99.5 µM.
On the same counts, the results for `O=C(Nc1cc(Cl)cc(-c2cccc3c(C(=O)O)cccc23)c1)OCc1ccccc1` are 7.51 µM and 9.78 µM.
The corresponding values for `NCc1cc(Br)cc([C@H]2C[C@@H]2c2cc(Cl)cc(NC(=O)OCc3ccccc3)c2)c1` are 33.5 µM and 16.1 µM.
The corresponding values for `C[C@H](C(=O)O)N(C)C(=O)c1cc(Cl)cc(NC(=O)OCc2ccccc2)c1` are above 100 µM and above 99.5 µM.
Turning to `C[C@](O)(Cc1cc(Cl)cc(NC(=O)OCc2ccccc2)c1)c1cccc(CN)c1`, the values for the IC50 at Genome polyprotein [1] and against Genome polyprotein [2] were above 100 µM and above 99.5 µM, respectively.
Turning to `CN(C)CCNC(=O)[C@H](Nc1cccc(-c2nn[nH]n2)c1)c1cc(Cl)cc(NC(=O)OCc2ccccc2)c1`, the IC50 against Genome polyprotein [1] was 47.2 µM and 67.4 µM and > 100 µM; at Genome polyprotein [2], 97.3 µM.
Regarding `CNC(=O)[C@H](Nc1cccc(-c2nnn[nH]2)c1)c1cc(Cl)cc(C2CC2)c1`, the IC50 was above 100 µM against Genome polyprotein [1] and above 99.5 µM on Genome polyprotein [2].
As to `CCc1cc(Br)cc2c(Cc3ccc(-c4nnn[nH]4)cc3)c[nH]c12`, the IC50 is 8.03 µM and 9.26 µM against Genome polyprotein [1]; 12 µM at Genome polyprotein [2].
As for `CN(C)C(=O)Nc1cccc([C@@H]2C[C@H]2c2cc(Cl)cc(NC(=O)OCc3ccccc3)c2)c1`, the IC50 was above 100 µM at Genome polyprotein [1] and above 99.5 µM on Genome polyprotein [2].
In the case of `CNC(=O)[C@H](Nc1cc(CN)cc(C(=O)O)c1)c1cc(Cl)cc(NC(=O)OCc2ccccc2)c1`, the IC50 was above 100 µM at Genome polyprotein [1] and above 99.5 µM against Genome polyprotein [2].
On the same counts, the results for `CC(C)[C@H](CC(=O)O)NC(=O)c1cc(Cl)cc(NC(=O)OCc2ccccc2)c1` are above 100 µM and above 99.5 µM.
On the same counts, the results for `N#C[C@H](Nc1ccc(CC(=O)O)cn1)c1cc(Cl)cc(C2CC2)c1` are above 100 µM and above 99.5 µM.
The corresponding values for `CNC(=O)[C@H](Nc1cc(CN)cc(-c2nn[nH]n2)c1)c1cc(Cl)cc(C2CC2)c1` are above 100 µM and above 99.5 µM.
Consider `O=C(Nc1cc(Cl)cc(C(=O)Nc2ccnc(C(=O)O)c2)c1)OCc1ccccc1`, for which the IC50 was above 100 µM against Genome polyprotein [1] and 66.9 µM against Genome polyprotein [2].
On the same counts, the results for `O=C(Nc1cc(Cl)cc(C(=O)N2CC[C@H](C(=O)O)C2)c1)OCc1ccccc1` are above 100 µM and above 99.5 µM.

The values above are taken from ChEMBL document CHEMBL5604063, “ASAP - DENV-2 NS2B-NS3 protease fluorescence dose response” (2024).
